# Tests used:
# Lipid bilayer [1] = assay: Binding affinity to synthetic palmitoyl-oleoyl-phosphatidylcholine liposome at 10 uM by surface plasmon resonance assay
# Lipid bilayer [2] = assay: Binding affinity to synthetic palmitoyl-oleoyl-phosphatidylcholine liposome at 10 uM by surface plasmon resonance assay in presence of 5% cholesterol
# Lipid bilayer [3] = assay: Binding affinity to synthetic palmitoyl-oleoyl-phosphatidylcholine liposome assessed as overall equilibrium association constant at 10 uM by surface plasmon resonance assay in presence of 5% cholesterol
# Lipid bilayer [4] = assay: Binding affinity to synthetic palmitoyl-oleoyl-phosphatidylcholine liposome assessed as association constant for compound- PPC liposome reorientation complex at 10 uM by surface plasmon resonance assay
# Lipid bilayer [5] = assay: Binding affinity to synthetic palmitoyl-oleoyl-phosphatidylcholine liposome assessed as association constant for compound- PPC liposome reorientation complex at 10 uM by surface plasmon resonance assay in presence of 5% cholesterol
# Lipid bilayer [6] = assay: Binding affinity to synthetic palmitoyl-oleoyl-phosphatidylcholine liposome assessed as overall equilibrium association constant at 10 uM by surface plasmon resonance assay in presence of 5% ergosterol
# Lipid bilayer [7] = assay: Binding affinity to synthetic palmitoyl-oleoyl-phosphatidylcholine liposome assessed as association constant for compound- PPC liposome reorientation complex at 10 uM by surface plasmon resonance assay in presence of 5% ergosterol
# Lipid bilayer [8] = assay: Binding affinity to synthetic palmitoyl-oleoyl-phosphatidylcholine liposome assessed as overall equilibrium association constant at 10 uM by surface plasmon resonance assay
# Lipid bilayer [9] = assay: Binding affinity to synthetic palmitoyl-oleoyl-phosphatidylcholine liposome at 10 uM by surface plasmon resonance assay in presence of 5% ergosterol
smiles,measurement,setting,value
C=C/C=C/CC/C=C/C=C/C=C/CC/C=C/[C@@H](O)[C@@H](O)C1O[C@@H]([C@H](O)[C@H](O)C(=C)CCC(O)[C@H]2C[C@@H](O)[C@@H](O)C([C@@H](O)[C@H](O)/C=C(\C)CC[C@H](O)C[C@H](O)[C@@H](O)[C@@H](C)C[C@H](O)[C@@H](O)CCCCCC(O)CCC[C@@H](O)/C=C/C[C@@H](O)/C=C/C[C@H](O)CO)O2)CC(O)C1O (some centres undefined),KA,Lipid bilayer [1],0.901 10^3/M
same,KA,Lipid bilayer [2],180 10^3/M
same,KA,Lipid bilayer [3],721 10^3/M
same,KA,Lipid bilayer [4],0.93 10^3/M
same,KA,Lipid bilayer [5],3.92 10^3/M
same,KA,Lipid bilayer [6],3970 10^3/M
same,KA,Lipid bilayer [7],28.6 10^3/M
same,KA,Lipid bilayer [8],0.764 10^3/M
same,KA,Lipid bilayer [9],143 10^3/M

# Source: ChEMBL document CHEMBL1156316, “Sterol effect on interaction between amphidinol 3 and liposomal membrane as evidenced by surface plasmon resonance” (Bioorg Med Chem Lett, 2010)
